In ChEMBL document CHEMBL3885861, “Open TG-GATES”:

Organism: Rattus norvegicus
Test: Open TG-GATES - Regimen: Single
Format: toxicity, organism-based, Sprague-Dawley
Parameters: regimen Single, gender Male, age 6 weeks
Conditions: in vivo, po, route gavage; for TC / TP / gamma-GTP / ALP / ALT / AST / CRE / DBIL / GLC / IP / K / LDH / Na / PL / RALB / TBIL / TG: tissue Plasma; for APTT / Bas / Eos / Fbg / Ht / Lym / MCH / MCHC / MCV / Mono / Neu / PT / RBC / Ret / WBC / Hb / Plat: tissue Blood; for KIDNEY_L / KIDNEY_R / KIDNEY_TOTAL: tissue Kidney; for LIVER: tissue Liver
[1] = 0 mg/kg, 24 h, dose level Control

CC(C)Cc1ccc(C(C)C(=O)O)cc1 (centres undefined) [IBUPROFEN]
TC [1]: 79.4 mg/dL | TP [1]: 5.5 g/dL | gamma-GTP [1]: 1.2 IU/L | TERMINAL_BW (60 mg/kg, 3 h, dose level Low): 204.2 g | APTT (60 mg/kg, 3 h, dose level Low): 21.7 s | Bas (60 mg/kg, 3 h, dose level Low): 0% | Eos (60 mg/kg, 3 h, dose level Low): 0% | Fbg (60 mg/kg, 3 h, dose level Low): 294.6 mg/dL | Ht (60 mg/kg, 3 h, dose level Low): 39.3% | Lym (60 mg/kg, 3 h, dose level Low): 73.8% | MCH (60 mg/kg, 3 h, dose level Low): 21.4 pg | MCHC (60 mg/kg, 3 h, dose level Low): 33.7% | MCV (60 mg/kg, 3 h, dose level Low): 63.8 fL | Mono (60 mg/kg, 3 h, dose level Low): 2.2% | Neu (60 mg/kg, 3 h, dose level Low): 22.6% | PT (60 mg/kg, 3 h, dose level Low): 15.3 s | RBC (60 mg/kg, 3 h, dose level Low): 618.2 x10_4/ul | Ret (60 mg/kg, 3 h, dose level Low): 7.9% | WBC (60 mg/kg, 3 h, dose level Low): 101.5 x10_2/uL | KIDNEY_L (60 mg/kg, 3 h, dose level Low): 0.9 g | KIDNEY_R (60 mg/kg, 3 h, dose level Low): 0.9 g | KIDNEY_TOTAL (60 mg/kg, 3 h, dose level Low): 1.7 g | LIVER (60 mg/kg, 3 h, dose level Low): 9.2 g | ALP (60 mg/kg, 3 h, dose level Low): 1434.6 IU/L | ALT (60 mg/kg, 3 h, dose level Low): 47.8 IU/L | AST (60 mg/kg, 3 h, dose level Low): 79.4 IU/L | CRE (60 mg/kg, 3 h, dose level Low): 0.2 mg/dL | DBIL (60 mg/kg, 3 h, dose level Low): 0.002 mg/dL | GLC (60 mg/kg, 3 h, dose level Low): 177 mg/dL | IP (60 mg/kg, 3 h, dose level Low): 8.4 mg/dL | K (60 mg/kg, 3 h, dose level Low): 4.1 meq/L | LDH (60 mg/kg, 3 h, dose level Low): 256 IU/L | Na (60 mg/kg, 3 h, dose level Low): 141.2 meq/L | PL (60 mg/kg, 3 h, dose level Low): 144.8 mg/dL | RALB (60 mg/kg, 3 h, dose level Low): 3 g/dL | TBIL (60 mg/kg, 3 h, dose level Low): 0.028 mg/dL | TC (60 mg/kg, 3 h, dose level Low): 85.2 mg/dL | TG (60 mg/kg, 3 h, dose level Low): 64.2 mg/dL | TP (60 mg/kg, 3 h, dose level Low): 5.4 g/dL | gamma-GTP (60 mg/kg, 3 h, dose level Low): 1.4 IU/L | TERMINAL_BW (60 mg/kg, 6 h, dose level Low): 205.3 g | APTT (60 mg/kg, 6 h, dose level Low): 23.2 s | Bas (60 mg/kg, 6 h, dose level Low): 0% | Eos (60 mg/kg, 6 h, dose level Low): 1% | Fbg (60 mg/kg, 6 h, dose level Low): 292.4 mg/dL | Hb (60 mg/kg, 6 h, dose level Low): 13.4 g/dL | Ht (60 mg/kg, 6 h, dose level Low): 39.3% | Lym (60 mg/kg, 6 h, dose level Low): 72.2% | MCH (60 mg/kg, 6 h, dose level Low): 21.6 pg | MCHC (60 mg/kg, 6 h, dose level Low): 34% | MCV (60 mg/kg, 6 h, dose level Low): 63.5 fL | Mono (60 mg/kg, 6 h, dose level Low): 2.6% | PT (60 mg/kg, 6 h, dose level Low): 16 s | Plat (60 mg/kg, 6 h, dose level Low): 116.1 x10_4/uL | RBC (60 mg/kg, 6 h, dose level Low): 619.4 x10_4/ul | Ret (60 mg/kg, 6 h, dose level Low): 8% | WBC (60 mg/kg, 6 h, dose level Low): 76.4 x10_2/uL | KIDNEY_L (60 mg/kg, 6 h, dose level Low): 0.9 g | KIDNEY_R (60 mg/kg, 6 h, dose level Low): 1 g | KIDNEY_TOTAL (60 mg/kg, 6 h, dose level Low): 1.9 g | LIVER (60 mg/kg, 6 h, dose level Low): 8.8 g | ALP (60 mg/kg, 6 h, dose level Low): 1432.6 IU/L | ALT (60 mg/kg, 6 h, dose level Low): 45 IU/L | AST (60 mg/kg, 6 h, dose level Low): 79.6 IU/L | CRE (60 mg/kg, 6 h, dose level Low): 0.1 mg/dL | DBIL (60 mg/kg, 6 h, dose level Low): 0.004 mg/dL | GLC (60 mg/kg, 6 h, dose level Low): 174.8 mg/dL | IP (60 mg/kg, 6 h, dose level Low): 9.6 mg/dL | K (60 mg/kg, 6 h, dose level Low): 4.5 meq/L | LDH (60 mg/kg, 6 h, dose level Low): 256.6 IU/L | Na (60 mg/kg, 6 h, dose level Low): 140 meq/L | PL (60 mg/kg, 6 h, dose level Low): 130.4 mg/dL | RALB (60 mg/kg, 6 h, dose level Low): 2.9 g/dL | TBIL (60 mg/kg, 6 h, dose level Low): 0.032 mg/dL | TC (60 mg/kg, 6 h, dose level Low): 72.6 mg/dL | TG (60 mg/kg, 6 h, dose level Low): 56 mg/dL | TP (60 mg/kg, 6 h, dose level Low): 5.1 g/dL | gamma-GTP (60 mg/kg, 6 h, dose level Low): 1.2 IU/L | TERMINAL_BW (60 mg/kg, 9 h, dose level Low): 199.8 g | Bas (60 mg/kg, 9 h, dose level Low): 0% | Eos (60 mg/kg, 9 h, dose level Low): 0.6% | Fbg (60 mg/kg, 9 h, dose level Low): 275 mg/dL | Hb (60 mg/kg, 9 h, dose level Low): 12.8 g/dL | Ht (60 mg/kg, 9 h, dose level Low): 38.1% | Lym (60 mg/kg, 9 h, dose level Low): 76.6% | MCH (60 mg/kg, 9 h, dose level Low): 21.5 pg | MCHC (60 mg/kg, 9 h, dose level Low): 33.6% | MCV (60 mg/kg, 9 h, dose level Low): 64.1 fL | Mono (60 mg/kg, 9 h, dose level Low): 2.6% | Neu (60 mg/kg, 9 h, dose level Low): 19.2% | PT (60 mg/kg, 9 h, dose level Low): 15.8 s | Plat (60 mg/kg, 9 h, dose level Low): 116.8 x10_4/uL | RBC (60 mg/kg, 9 h, dose level Low): 594.6 x10_4/ul | Ret (60 mg/kg, 9 h, dose level Low): 8.2% | WBC (60 mg/kg, 9 h, dose level Low): 66.8 x10_2/uL | KIDNEY_L (60 mg/kg, 9 h, dose level Low): 1 g | KIDNEY_R (60 mg/kg, 9 h, dose level Low): 1 g | KIDNEY_TOTAL (60 mg/kg, 9 h, dose level Low): 1.9 g | LIVER (60 mg/kg, 9 h, dose level Low): 8.2 g | ALP (60 mg/kg, 9 h, dose level Low): 1788.8 IU/L | ALT (60 mg/kg, 9 h, dose level Low): 40.8 IU/L | AST (60 mg/kg, 9 h, dose level Low): 72.4 IU/L | CRE (60 mg/kg, 9 h, dose level Low): 0.1 mg/dL | DBIL (60 mg/kg, 9 h, dose level Low): 0.006 mg/dL | GLC (60 mg/kg, 9 h, dose level Low): 174.8 mg/dL | K (60 mg/kg, 9 h, dose level Low): 4.4 meq/L | LDH (60 mg/kg, 9 h, dose level Low): 208.4 IU/L | Na (60 mg/kg, 9 h, dose level Low): 139.8 meq/L | RALB (60 mg/kg, 9 h, dose level Low): 2.9 g/dL | TBIL (60 mg/kg, 9 h, dose level Low): 0.026 mg/dL | TC (60 mg/kg, 9 h, dose level Low): 67 mg/dL | TG (60 mg/kg, 9 h, dose level Low): 58.6 mg/dL | TP (60 mg/kg, 9 h, dose level Low): 5.3 g/dL | gamma-GTP (60 mg/kg, 9 h, dose level Low): 1 IU/L | TERMINAL_BW (60 mg/kg, 24 h, dose level Low): 206.8 g | APTT (60 mg/kg, 24 h, dose level Low): 21.7 s | Bas (60 mg/kg, 24 h, dose level Low): 0% | Eos (60 mg/kg, 24 h, dose level Low): 1% | Fbg (60 mg/kg, 24 h, dose level Low): 309.8 mg/dL | Ht (60 mg/kg, 24 h, dose level Low): 40.6% | Lym (60 mg/kg, 24 h, dose level Low): 78.2% | MCH (60 mg/kg, 24 h, dose level Low): 21.6 pg | MCHC (60 mg/kg, 24 h, dose level Low): 34.1% | MCV (60 mg/kg, 24 h, dose level Low): 63.2 fL | Mono (60 mg/kg, 24 h, dose level Low): 3.2% | Neu (60 mg/kg, 24 h, dose level Low): 17% | PT (60 mg/kg, 24 h, dose level Low): 16.5 s | Plat (60 mg/kg, 24 h, dose level Low): 112 x10_4/uL | RBC (60 mg/kg, 24 h, dose level Low): 643.6 x10_4/ul | Ret (60 mg/kg, 24 h, dose level Low): 6.8% | WBC (60 mg/kg, 24 h, dose level Low): 119.2 x10_2/uL | KIDNEY_L (60 mg/kg, 24 h, dose level Low): 0.9 g | KIDNEY_R (60 mg/kg, 24 h, dose level Low): 0.9 g | KIDNEY_TOTAL (60 mg/kg, 24 h, dose level Low): 1.8 g | LIVER (60 mg/kg, 24 h, dose level Low): 9.8 g | ALP (60 mg/kg, 24 h, dose level Low): 1457.4 IU/L | ALT (60 mg/kg, 24 h, dose level Low): 46.6 IU/L | AST (60 mg/kg, 24 h, dose level Low): 76.8 IU/L | CRE (60 mg/kg, 24 h, dose level Low): 0.2 mg/dL | DBIL (60 mg/kg, 24 h, dose level Low): 0 mg/dL | GLC (60 mg/kg, 24 h, dose level Low): 183.6 mg/dL | IP (60 mg/kg, 24 h, dose level Low): 7.7 mg/dL | K (60 mg/kg, 24 h, dose level Low): 4.5 meq/L | LDH (60 mg/kg, 24 h, dose level Low): 274 IU/L | Na (60 mg/kg, 24 h, dose level Low): 141.6 meq/L | PL (60 mg/kg, 24 h, dose level Low): 142.2 mg/dL | RALB (60 mg/kg, 24 h, dose level Low): 3 g/dL | TBIL (60 mg/kg, 24 h, dose level Low): 0.004 mg/dL | TC (60 mg/kg, 24 h, dose level Low): 76.6 mg/dL
